In ChEMBL document CHEMBL1137659, “Molecular epidemiology of clinical isolates of carbapenem-resistant Acinetobacter spp. from Chinese hospitals” (2007):
Values after ≈ are worked out from the molar mass of the structure shown.

Key:
[1] = test system: Acinetobacter genospecies 3; test: Antimicrobial activity against imipenem and meropenem-resistant Acinetobacter genospecies 3 isolate PUA7 by CLSI agar dilution method
Acinetobacter baumannii [2] = test: Antimicrobial activity against imipenem and meropenem-resistant Acinetobacter baumannii isolate JN45 by CLSI agar dilution method; type: functional
[3] = test system: Acinetobacter genospecies 10/11; test: Antimicrobial activity against imipenem and meropenem-resistant Acinetobacter genospecies 10/11 isolate ZS5 by CLSI agar dilution method
Acinetobacter baumannii [4] = test: Antimicrobial activity against imipenem and meropenem-resistant Acinetobacter baumannii isolate CY7 by CLSI agar dilution method; type: functional
Acinetobacter baumannii [5] = test: Antimicrobial activity against imipenem and meropenem-resistant Acinetobacter baumannii isolate PUA1 by CLSI agar dilution method; type: functional
[6] = test system: Acinetobacter genospecies 10/11; test: Antimicrobial activity against imipenem and meropenem-resistant Acinetobacter genospecies 10/11 isolate ZS15 by CLSI agar dilution method
Acinetobacter baumannii [7] = test: Antimicrobial activity against imipenem and meropenem-resistant Acinetobacter baumannii isolate PU73 by CLSI agar dilution method; type: functional
Acinetobacter baumannii [8] = test: Antimicrobial activity against imipenem and meropenem-resistant Acinetobacter baumannii isolate BJ3-9 by CLSI agar dilution method; type: functional
Acinetobacter baumannii [9] = test: Antimicrobial activity against imipenem and meropenem-resistant Acinetobacter baumannii isolate ZJ36 by CLSI agar dilution method; type: functional
[10] = test system: Acinetobacter genospecies 13TU; test: Antimicrobial activity against imipenem and meropenem-resistant Acinetobacter genospecies 13TU isolate CY6 by CLSI agar dilution method
Acinetobacter baumannii [11] = test: Antimicrobial activity against imipenem and meropenem-resistant Acinetobacter baumannii isolate FZ84 by CLSI agar dilution method; type: functional
Acinetobacter baumannii [12] = test: Antimicrobial activity against imipenem and meropenem-resistant Acinetobacter baumannii isolate BJ55 by CLSI agar dilution method; type: functional
Acinetobacter baumannii [13] = test: Antimicrobial activity against imipenem and meropenem-resistant Acinetobacter baumannii isolate ZJ32 by CLSI agar dilution method; type: functional
Acinetobacter baumannii [14] = test: Antimicrobial activity against imipenem and meropenem-resistant Acinetobacter baumannii isolate FW-F1 by CLSI agar dilution method; type: functional
[15] = test system: Acinetobacter phenon 6/ct 13TU; test: Antimicrobial activity against imipenem and meropenem-resistant Acinetobacter phenon 6/ct 13TU isolate FZ4A18 by CLSI agar dilution method
[16] = test system: Acinetobacter phenon 6/ct 13TU (Acinetobacter sp.); test: Antimicrobial activity against imipenem and meropenem-resistant Acinetobacter phenon 6/ct 13TU isolate PU86 by CLSI agar dilution method
Acinetobacter baumannii [17] = test: Antimicrobial activity against imipenem and meropenem-resistant Acinetobacter baumannii isolate PU4A22 by CLSI agar dilution method; type: functional
Acinetobacter baumannii [18] = test: Antimicrobial activity against imipenem and meropenem-resistant Acinetobacter baumannii isolate BJ3-23 by CLSI agar dilution method; type: functional
Acinetobacter phenon 5 = test: Antimicrobial activity against imipenem and meropenem-resistant Acinetobacter phenon 5 isolate PUA6 by CLSI agar dilution method
Acinetobacter baumannii [19] = test: Antimicrobial activity against imipenem and meropenem-resistant Acinetobacter baumannii isolate ZJ49 by CLSI agar dilution method; type: functional
[20] = test system: Acinetobacter genospecies 3 (Acinetobacter genomosp. 3); test: Antimicrobial activity against imipenem and meropenem-resistant Acinetobacter genospecies 3 isolate PU78 by CLSI agar dilution method; details: Acinetobacter genospecies 3, isolate PU78
Acinetobacter baumannii [21] = test: Antimicrobial activity against imipenem and meropenem-resistant Acinetobacter baumannii isolate ZJ58 by CLSI agar dilution method; type: functional
Acinetobacter baumannii [22] = test: Antimicrobial activity against imipenem and meropenem-resistant Acinetobacter baumannii isolate PU4A1 by CLSI agar dilution method; type: functional
Acinetobacter baumannii [23] = test: Antimicrobial activity against imipenem and meropenem-resistant Acinetobacter baumannii isolate BJ52 by CLSI agar dilution method; type: functional
Acinetobacter baumannii [24] = test: Antimicrobial activity against imipenem and meropenem-resistant Acinetobacter baumannii isolate DL34 by CLSI agar dilution method; type: functional
[25] = test system: Acinetobacter genomosp. 3; test: Antimicrobial activity against imipenem and meropenem-resistant Acinetobacter genospecies 3 isolate PU78 by CLSI agar dilution method; details: Acinetobacter genomosp. 3, isolate PU78
Acinetobacter baumannii [26] = test: Antimicrobial activity against imipenem and meropenem-resistant Acinetobacter baumannii isolate NJ59 by CLSI agar dilution method; type: functional

C[C@H]1COc2c(N3CCN(C)CC3)c(F)cc3c(=O)c(C(=O)O)cn1c23.C[C@H]1COc2c(N3CCN(C)CC3)c(F)cc3c(=O)c(C(=O)O)cn1c23.O [LEVOFLOXACIN]
MIC [1]: 0.06 mg/L
MIC (Acinetobacter baumannii [2]): 0.5 mg/L
MIC [3]: > 32 mg/L
MIC (Acinetobacter baumannii [4]): > 32 mg/L
MIC (Acinetobacter baumannii [5]): 16 mg/L
MIC [6]: 4 mg/L
MIC (Acinetobacter baumannii [7]): 16 mg/L
MIC (Acinetobacter baumannii [8]): 4 mg/L
MIC (Acinetobacter baumannii [9]): 4 mg/L
MIC [10]: 0.12 mg/L
MIC (Acinetobacter baumannii [11]): > 32 mg/L
MIC (Acinetobacter baumannii [12]): 16 mg/L
MIC (Acinetobacter baumannii [13]): 16 mg/L
MIC (Acinetobacter baumannii [14]): 4 mg/L
MIC [15]: 0.12 mg/L
MIC [16]: 0.125 mg/L
MIC (Acinetobacter baumannii [17]): 4 mg/L
MIC (Acinetobacter baumannii [18]): 4 mg/L
MIC (Acinetobacter phenon 5): 0.06 mg/L
MIC (Acinetobacter baumannii [19]): 4 mg/L
MIC [20]: 0.125 mg/L
MIC (Acinetobacter baumannii [21]): > 32 mg/L
MIC (Acinetobacter baumannii [22]): 4 mg/L

CN(C)c1ccc(O)c2c1C[C@H]1C[C@H]3[C@H](N(C)C)C(O)=C(C(N)=O)C(=O)[C@@]3(O)C(O)=C1C2=O [MINOCYCLINE]
MIC [1]: 0.5 mg/L (≈ 1.09 µM)
MIC (Acinetobacter baumannii [2]): 0.5 mg/L (≈ 1.09 µM)
MIC [3]: 8 mg/L (≈ 17.5 µM)
MIC (Acinetobacter baumannii [4]): 0.5 mg/L (≈ 1.09 µM)
MIC (Acinetobacter baumannii [5]): 4 mg/L (≈ 8.74 µM)
MIC [6]: 0.25 mg/L (≈ 0.546 µM)
MIC (Acinetobacter baumannii [7]): 8 mg/L (≈ 17.5 µM)
MIC (Acinetobacter baumannii [8]): 4 mg/L (≈ 8.74 µM)
MIC (Acinetobacter baumannii [9]): 32 mg/L (≈ 69.9 µM)
MIC [10]: 0.25 mg/L (≈ 0.546 µM)
MIC (Acinetobacter baumannii [11]): 4 mg/L (≈ 8.74 µM)
MIC (Acinetobacter baumannii [12]): 16 mg/L (≈ 35 µM)
MIC (Acinetobacter baumannii [13]): 16 mg/L (≈ 35 µM)
MIC (Acinetobacter baumannii [23]): 8 mg/L (≈ 17.5 µM)
MIC (Acinetobacter baumannii [14]): 2 mg/L (≈ 4.37 µM)
MIC [15]: 0.5 mg/L (≈ 1.09 µM)
MIC [16]: ≤ 0.125 mg/L
MIC (Acinetobacter baumannii [24]): 8 mg/L (≈ 17.5 µM)
MIC (Acinetobacter baumannii [17]): 2 mg/L (≈ 4.37 µM)
MIC (Acinetobacter baumannii [18]): 8 mg/L (≈ 17.5 µM)
MIC (Acinetobacter phenon 5): 0.5 mg/L (≈ 1.09 µM)
MIC (Acinetobacter baumannii [19]): 32 mg/L (≈ 69.9 µM)
MIC [25]: ≤ 0.125 mg/L
MIC (Acinetobacter baumannii [26]): 4 mg/L (≈ 8.74 µM)
MIC (Acinetobacter baumannii [21]): 16 mg/L (≈ 35 µM)
MIC (Acinetobacter baumannii [22]): 2 mg/L (≈ 4.37 µM)

NCC[C@H](O)C(=O)N[C@@H]1C[C@H](N)[C@@H](O[C@H]2O[C@H](CN)[C@@H](O)[C@H](O)[C@H]2O)[C@H](O)[C@H]1O[C@H]1O[C@H](CO)[C@@H](O)[C@H](N)[C@H]1O [AMIKACIN]
MIC [1]: 4 mg/L (≈ 6.83 µM)
MIC (Acinetobacter baumannii [2]): 128 mg/L (≈ 219 µM)
MIC [3]: > 256 mg/L
MIC (Acinetobacter baumannii [4]): > 256 mg/L
MIC (Acinetobacter baumannii [5]): 8 mg/L (≈ 13.7 µM)
MIC [6]: 256 mg/L (≈ 437 µM)
MIC (Acinetobacter baumannii [7]): > 256 mg/L
MIC (Acinetobacter baumannii [8]): > 256 mg/L
MIC (Acinetobacter baumannii [9]): 2 mg/L (≈ 3.42 µM)
MIC [10]: 32 mg/L (≈ 54.6 µM)
MIC (Acinetobacter baumannii [11]): > 256 mg/L
MIC (Acinetobacter baumannii [12]): > 256 mg/L
MIC (Acinetobacter baumannii [13]): > 256 mg/L
MIC (Acinetobacter baumannii [23]): 2 mg/L (≈ 3.42 µM)
MIC (Acinetobacter baumannii [14]): > 256 mg/L
MIC [15]: 32 mg/L (≈ 54.6 µM)
MIC [16]: 4 mg/L (≈ 6.83 µM)
MIC (Acinetobacter baumannii [24]): > 256 mg/L
MIC (Acinetobacter baumannii [17]): 128 mg/L (≈ 219 µM)
MIC (Acinetobacter baumannii [18]): > 256 mg/L
MIC (Acinetobacter phenon 5): 2 mg/L (≈ 3.42 µM)
MIC (Acinetobacter baumannii [19]): 256 mg/L (≈ 437 µM)
MIC [20]: 1 mg/L (≈ 1.71 µM)
MIC (Acinetobacter baumannii [26]): > 256 mg/L
MIC (Acinetobacter baumannii [21]): 64 mg/L (≈ 109 µM)
MIC (Acinetobacter baumannii [22]): > 256 mg/L

CC(C)(O/N=C(\C(=O)N[C@@H]1C(=O)N2C(C(=O)[O-])=C(C[n+]3ccccc3)CS[C@H]12)c1csc(N)n1)C(=O)O [CEFTAZIDIME]
MIC [1]: > 256 mg/L
MIC (Acinetobacter baumannii [2]): > 256 mg/L
MIC [3]: > 256 mg/L
MIC (Acinetobacter baumannii [4]): > 256 mg/L
MIC (Acinetobacter baumannii [5]): > 256 mg/L
MIC [6]: 16 mg/L (≈ 29.3 µM)
MIC (Acinetobacter baumannii [7]): > 256 mg/L
MIC (Acinetobacter baumannii [8]): 8 mg/L (≈ 14.6 µM)
MIC (Acinetobacter baumannii [9]): 16 mg/L (≈ 29.3 µM)
MIC [10]: > 256 mg/L
MIC (Acinetobacter baumannii [11]): > 256 mg/L
MIC (Acinetobacter baumannii [12]): > 256 mg/L
MIC (Acinetobacter baumannii [13]): 64 mg/L (≈ 117 µM)
MIC (Acinetobacter baumannii [23]): 16 mg/L (≈ 29.3 µM)
MIC (Acinetobacter baumannii [14]): > 256 mg/L
MIC [15]: > 256 mg/L
MIC [16]: > 256 mg/L
MIC (Acinetobacter baumannii [24]): 64 mg/L (≈ 117 µM)
MIC (Acinetobacter baumannii [17]): > 256 mg/L
MIC (Acinetobacter baumannii [18]): > 256 mg/L
MIC (Acinetobacter phenon 5): > 256 mg/L
MIC (Acinetobacter baumannii [19]): 32 mg/L (≈ 58.5 µM)
MIC [20]: 4 mg/L (≈ 7.32 µM)
MIC (Acinetobacter baumannii [26]): > 256 mg/L
MIC (Acinetobacter baumannii [21]): 16 mg/L (≈ 29.3 µM)
MIC (Acinetobacter baumannii [22]): > 256 mg/L
